In PMC8042122 (Scientific Reports, 2021):

Test system: F. graminearum CBS185.32 strain
Format: cell-based, Fusarium graminearum
Conditions: for Impact of methyl caps on the activity of TC3 (ability to inhibit TCTB production): 50 µM

Substance	Impact of methyl caps on the activity of TC3 (ability to inhibit TCTB production)	Inhibitory activity on TCTB production
CGNFLKRTC(CH3)ICVKK (disulfide) [TC3-CH3-2Ox, TC3-CH3-2 oxidized, cyclized through the non-capped Cys]	most negative impact	
CGNFLKRTCIC(CH3)VKK (disulfide) [TC3-CH3-3Ox, TC3-CH3-3 oxidized, cyclized through the non-capped Cys]	most negative impact	
CGNFLTRTCICVKK [TC3-K6T, TC3 with Lys6 substituted by Thr]		lowest inhibitory activity
